From patent US20240409585A1, “MACROCYCLIC IMMUNOMODULATORS” (priority 2021, published 2024) come the findings set out here.

Numbered stars: 1 amine (or outer) side, 2 acyl side, 3 side chain; on linkers, the order of the positions; unused ones are H or OH. Bridge positions count the residues as written; N and C are the ends. Square brackets hold non-standard residues; d marks the D form. Peptide text beside a SMILES is read from it. * marks the point of attachment. X51 = O=C([C@H](Cc1cccc(-c2cccc(S(=O)(=O)N3CCOCC3)c2)c1)N[*:1])[*:2]; Bip(4'-COOH) = N[C@@H](Cc1ccc(-c2ccc(C(=O)O)cc2)cc1)C(=O)O; Bip(4'-NHAc) = CC(=O)Nc1ccc(-c2ccc(C[C@H](N)C(=O)O)cc2)cc1; Phe(3-CF3) = N[C@@H](Cc1cccc(C(F)(F)F)c1)C(=O)O; Ala(morpholin-4-yl) = N[C@@H](CN1CCOCC1)C(=O)O; Phe(4-CONH2) = NC(=O)c1ccc(C[C@H](N)C(=O)O)cc1; Phe(4-COOH) = N[C@@H](Cc1ccc(C(=O)O)cc1)C(=O)O; Bip = N[C@@H](Cc1ccc(-c2ccccc2)cc1)C(=O)O; Abu(3R-NH2) = C[C@@H](N)[C@H](N)C(=O)O; Phe(3-Me) = Cc1cccc(C[C@H](N)C(=O)O)c1; Abu(3S-NH2) = C[C@H](N)[C@H](N)C(=O)O; Propanoyl(3,3,3-F3) = O=C(CC(F)(F)F)*; Val(3-OH) = CC(C)(O)[C@H](N)C(=O)O; hPhe = N[C@@H](CCc1ccccc1)C(=O)O; Cha = N[C@@H](CC1CCCCC1)C(=O)O; Suc = O=C(CCC(=O)[*:2])[*:1]; Carboxymethyl = O=C(O)C*; NMeA = CN[C@@H](C)C(=O)O; Orn = NCCC[C@H](N)C(=O)O; Dab = NCC[C@H](N)C(=O)O; Dap = NC[C@H](N)C(=O)O; X42 = CS(=O)(=O)O*

T1 sequence (Q15116 25-288): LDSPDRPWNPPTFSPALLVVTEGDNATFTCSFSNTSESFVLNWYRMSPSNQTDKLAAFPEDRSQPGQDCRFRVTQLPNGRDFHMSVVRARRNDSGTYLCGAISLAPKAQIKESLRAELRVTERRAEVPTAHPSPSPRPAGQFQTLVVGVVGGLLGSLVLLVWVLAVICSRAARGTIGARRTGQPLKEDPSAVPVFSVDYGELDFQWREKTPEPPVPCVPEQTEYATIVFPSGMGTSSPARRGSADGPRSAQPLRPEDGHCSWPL

One test has as its target T1, Alexa fluor-647 labeled human PD-L1-Ig binding to Jurkat cell line over-expressing human PD-1 (Homo sapiens, UniProt Q15116).
T1 construct: expressed in transfected cells; host or cells: Jurkat
Kind of test: Jurkat-PD-1 Cell Binding High-Content Screening Assay (CBA): Method 3 (Alexa fluor-647 labeled PD-L1-Ig). The conditions noted are these: Jurkat-PD-1 cells, Alexa fluor-647 labeled PD-L1-Ig 177 nM; head μM; read-out: CBA Method 3 μM. The method in brief: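 Readout by high-content imaging of PFA-fixed, Hoechst-stained cells after 1 h with 177 nM (final) Alexa fluor-647 PD-L1-Ig. Compound was added first to hPD-1 Jurkat cells in RPMI plus 10% FCS for 2 h at 37 °C.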
Turning to `Cc1cccc(C[C@@H]2NC(=O)[C@H](CC(=O)O)NC(=O)[C@H](Cc3ccc(OCC(=O)O)cc3)NC(=O)[C@H](CN3CCOCC3)NC(=O)CSC[C@@H](C(=O)N[C@@H](CCN)C(N)=O)NC(=O)[C@H](CCCN)NC(=O)[C@H](C(C)C)NC(=O)[C@H](CC3CCCCC3)NC(=O)[C@H](CCN)NC(=O)[C@@H](CC(C)C)NC(=O)[C@H](C)N(C)C(=O)[C@H](CCC(N)=O)NC(=O)[C@H](Cc3ccc(-c4ccccc4)cc3)NC(=O)[C@H](Cc3cccc(-c4cccc(S(=O)(=O)N5CCOCC5)c4)c3)NC2=O)c1` [Example 5106] ({CH2CO}-[Ala(morpholin-4-yl)]Y(Carboxymethyl)D[Phe(3-Me)][X51][Bip]Q[NMeA][dL][Dab][Cha]V[Orn]C[Dab]-NH2; thioether N-14), the IC50 stood at 0.06 µM.

For `CC(=O)Nc1ccc(-c2ccc(C[C@@H]3NC(=O)[C@H](Cc4cccc(C(F)(F)F)c4)NC(=O)[C@H](CC(=O)OS(C)(=O)=O)NC(=O)[C@H](Cc4ccc(C(=O)O)cc4)NC(=O)[C@H]([C@H](C)N)NC(=O)CSC[C@@H](C(=O)N[C@@H](CCN)C(N)=O)NC(=O)[C@H](CC(N)=O)NC(=O)[C@H](C(C)C)NC(=O)[C@H](CC4CCCCC4)NC(=O)[C@H](CCN)NC(=O)[C@@H](CC(C)C)NC(=O)[C@H](C)N(C)C(=O)[C@H](Cc4ccc(C(N)=O)cc4)NC(=O)[C@H](Cc4ccc(-c5ccccc5)cc4)NC3=O)cc2)cc1` [Example 5112] ({CH2CO}-[Abu(3S-NH2)][Phe(4-COOH)]D(X42)[Phe(3-CF3)][Bip(4'-NHAc)][Bip][Phe(4-CONH2)][NMeA][dL][Dab][Cha]VNC[Dab]-NH2; thioether N-14), the IC50 is 0.1 µM.

On to `Cc1cccc(C[C@@H]2NC(=O)[C@H](CC(=O)O)NC(=O)[C@H](Cc3ccc(OCC(=O)O)cc3)NC(=O)[C@H](CC3CCCCC3)NC(=O)CSC[C@@H](C(=O)N[C@@H](CCN)C(N)=O)NC(=O)[C@H](CCC(N)=O)NC(=O)[C@H](C(C)C)NC(=O)[C@H](CC3CCCCC3)NC(=O)[C@H](CCN)NC(=O)[C@@H](CC(C)C)NC(=O)[C@H](C)N(C)C(=O)[C@H](CCC(N)=O)NC(=O)[C@H](Cc3ccc(-c4ccccc4)cc3)NC(=O)[C@H](CCc3ccccc3)NC2=O)c1` [Example 5222] ({CH2CO}-[Cha]Y(Carboxymethyl)D[Phe(3-Me)][hPhe][Bip]Q[NMeA][dL][Dab][Cha]VQC[Dab]-NH2; thioether N-14), for which the IC50 turned out to be 0.02 µM.

Take `CC(=O)Nc1ccc(-c2ccc(C[C@@H]3NC(=O)[C@H](Cc4cccc(C)c4)NC(=O)[C@H](CC(=O)O)NC(=O)[C@H](Cc4ccc(-c5ccc(C(=O)O)cc5)cc4)NC(=O)[C@H](CN4CCOCC4)NC(=O)CSC[C@@H](C(=O)N[C@@H](CCN)C(N)=O)NC(=O)[C@H](Cc4cnc[nH]4)NC(=O)[C@H](C(C)(C)O)NC(=O)[C@H](CC4CCCCC4)NC(=O)[C@H](CCN)NC(=O)[C@@H](CC(C)C)NC(=O)[C@H](C)N(C)C(=O)[C@H](Cc4ccc(OCC(=O)O)cc4)NC(=O)[C@H](Cc4ccc(-c5ccccc5)cc4)NC3=O)cc2)cc1` [Example 5134] ({CH2CO}-[Ala(morpholin-4-yl)][Bip(4'-COOH)]D[Phe(3-Me)][Bip(4'-NHAc)][Bip]Y(Carboxymethyl)[NMeA][dL][Dab][Cha][Val(3-OH)]HC[Dab]-NH2; thioether N-14): the IC50 stood at 0.03 µM.

As for `CC(C)C[C@H]1NC(=O)[C@H](C)N(C)C(=O)[C@H](CCC(N)=O)NC(=O)[C@H](Cc2ccc(-c3ccccc3)cc2)NC(=O)[C@H](CCc2ccccc2)NC(=O)[C@H](Cc2cccc(C(F)(F)F)c2)NC(=O)[C@H](CC(=O)O)NC(=O)[C@H](Cc2ccc(OCC(=O)O)cc2)NC(=O)[C@H]([C@@H](C)N)NC(=O)CSC[C@@H](C(=O)N[C@@H](CCN)C(N)=O)NC(=O)[C@H](CCCN)NC(=O)[C@H](C(C)C)NC(=O)[C@H](CC2CCCCC2)NC(=O)[C@H](CCN)NC1=O` [Example 5219] ({CH2CO}-[Abu(3R-NH2)]Y(Carboxymethyl)D[Phe(3-CF3)][hPhe][Bip]Q[NMeA][dL][Dab][Cha]V[Orn]C[Dab]-NH2; thioether N-14), the IC50 is 0.1 µM.

Take `Cc1cccc(C[C@@H]2NC(=O)[C@H](CC(=O)O)NC(=O)[C@H](Cc3ccc(OCC(=O)O)cc3)NC(=O)[C@H](CC3CCCCC3)NC(=O)CSC[C@@H](C(=O)N[C@@H](CCN)C(N)=O)NC(=O)[C@H](CCCN)NC(=O)[C@H](C(C)C)NC(=O)[C@H](CN3CCOCC3)NC(=O)[C@H](CCN)NC(=O)[C@@H](CC(C)C)NC(=O)[C@H](C)N(C)C(=O)[C@H](CCC(N)=O)NC(=O)[C@H](Cc3ccc(-c4ccccc4)cc3)NC(=O)[C@H](Cc3ccc(C(=O)O)cc3)NC2=O)c1` [Example 5191] ({CH2CO}-[Cha]Y(Carboxymethyl)D[Phe(3-Me)][Phe(4-COOH)][Bip]Q[NMeA][dL][Dab][Ala(morpholin-4-yl)]V[Orn]C[Dab]-NH2; thioether N-14): the IC50 came to 0.12 µM.

For the compound `CC(C)C[C@H]1NC(=O)[C@H](C)N(C)C(=O)[C@H](Cc2ccc(C(=O)O)cc2)NC(=O)[C@H](Cc2ccc(-c3ccccc3)cc2)NC(=O)[C@H](CCc2ccccc2)NC(=O)[C@H](Cc2cccc(C(F)(F)F)c2)NC(=O)[C@H](CC(=O)O)NC(=O)[C@H](Cc2ccc(C(=O)O)cc2)NC(=O)[C@H](CN2CCOCC2)NC(=O)CSC[C@@H](C(=O)N[C@@H](CCN)C(N)=O)NC(=O)[C@H](CNC(=O)CC(F)(F)F)NC(=O)[C@H](C(C)C)NC(=O)[C@H](CC2CCCCC2)NC(=O)[C@H](CCN)NC1=O` [Example 5207] ({CH2CO}-[Ala(morpholin-4-yl)][Phe(4-COOH)]D[Phe(3-CF3)][hPhe][Bip][Phe(4-COOH)][NMeA][dL][Dab][Cha]V[Dap](Propanoyl(3,3,3-F3))C[Dab]-NH2; thioether N-14), the IC50 was 0.03 µM.

The test is the same for the next values; noted with them: Jurkat-PD-1 cells, Alexa fluor-647 labeled PD-L1-Ig 177 nM; nM; read-out: CBA Method 3.
For `CC(C)C[C@H]1NC(=O)[C@H](C)N(C)C(=O)[C@H](Cc2ccc(C(=O)O)cc2)NC(=O)[C@H](Cc2ccc(-c3ccccc3)cc2)NC(=O)[C@H](Cc2ccc(C(=O)O)cc2)NC(=O)[C@H](Cc2cccc(C(F)(F)F)c2)NC(=O)[C@H](CC(=O)O)NC(=O)[C@H](Cc2ccc(C(=O)O)cc2)NC(=O)[C@H](CN2CCOCC2)NC(=O)CSC[C@@H](C(=O)N[C@@H](CCN)C(N)=O)NC(=O)[C@H](CNC(=O)CCC(=O)O)NC(=O)[C@H](C(C)C)NC(=O)[C@H](CC2CCCCC2)NC(=O)[C@H](CCN)NC1=O` [Example 5144] ({CH2CO}-[Ala(morpholin-4-yl)][Phe(4-COOH)]D[Phe(3-CF3)][Phe(4-COOH)][Bip][Phe(4-COOH)][NMeA][dL][Dab][Cha]V[Dap](Suc)C[Dab]-NH2; thioether N-14), the IC50 amounted to 0.0097 µM.

With `CC[C@H](C)[C@@H]1NC(=O)CSC[C@@H](C(=O)N[C@@H](CCN)C(N)=O)NC(=O)[C@H](CCCN)NC(=O)[C@H](C(C)C)NC(=O)[C@H](CC2CCCCC2)NC(=O)[C@H](CCN)NC(=O)[C@@H](CC(C)C)NC(=O)[C@H](C)N(C)C(=O)[C@H](CCC(N)=O)NC(=O)[C@H](Cc2ccc(-c3ccccc3)cc2)NC(=O)[C@H](Cc2ccc(C(=O)O)cc2)NC(=O)[C@H](Cc2cccc(C)c2)NC(=O)[C@H](CC(=O)O)NC(=O)[C@H](Cc2ccc(OCC(=O)O)cc2)NC1=O` [Example 5268] ({CH2CO}-IY(Carboxymethyl)D[Phe(3-Me)][Phe(4-COOH)][Bip]Q[NMeA][dL][Dab][Cha]V[Orn]C[Dab]-NH2; thioether N-14), the IC50 worked out at 0.0053 µM.
